Assay type in all cases: cell-based
Test [1] concerns SPI1 type III protein secretion system (SopE‘-’Bla secretion). The experiment in a line: Primary assay: Type III protein secretion of the chimeric SopE‘-’Bla polypeptide (nitrocefin hydrolysis). Particulars: Salmonella enterica, read-out: SopE IC50(uM). An excerpt:
Primary assay: Type III protein secretion of the chimeric SopE‘-’Bla polypeptide by Salmonella enterica. This procedure is a cell-based assay that measures the type III-dependent secretion by Salmonella enterica of a plasmid-encoded chimeric polypeptide whose synthesis can be regulated, and which is endowed with an enzymatic activity that can be monitored colorimetrically by hydrolysis of a substrate that is unable to penetrate into the bacterial cytoplasm within the time constraints of the reaction. Thus, the colorimetric reaction is not influenced by SopE‘-’Bla polypeptide in the bacterial cytoplasm. Instead, it effectively measures the amount of polypeptide that has been secreted from the S. enterica cytoplasm to the extracellular medium via type III system protein secretion.
The SopE‘-’Bla recombinant polypeptide consists of two functionally distinct domains spliced together. The N-terminus domain is encoded by a polynucleotide region specifying the signal for type III secretion of the SopE polypeptide of S. enterica, an effector of the SPI1 type III protein secretion system. The C-terminus domain of SopE‘-’Bla consists of a 263 amino acid peptide sequence that corresponds to the TEM-1 β-lactamase expressed by plasmid pBR322 but without its N-terminal signal sequence. The TEM-1 β-lactamase part of the SopE‘-’Bla chimeric polypeptide is used as a reporter enzyme. It is capable of hydrolyzing nitrocefin resulting in a product whose accumulation can be monitored by colorimetric detection. The secretion of the SopE‘—’Bla chimeric polypeptide from the cytoplasm to the extracellular medium is dependent on type III protein secretion.
For this procedure, cells grown under conditions known to favor a functional SPI1 secretion system are induced for expression of the SopE‘-’Bla protein and grown either in the presence or in the absence of putative inhibitors for determined time. Nitrocefin is then added to the various cultures and its hydrolysis are used for quantitation. An inhibitor of Type III protein secretion is generally a compound that reduces the signal of the enzymatic reaction by decreasing the amount of SopE‘-’Bla secreted into the extracellular medium.

The subject of test [2] is type III protein secretion system of P. aeruginosa PA103 (ExoU secretion). Put plainly: Tertiary assay: Type III-dependent secretion of ExoU by P. aeruginosa PA103 (SDS-PAGE band quantitation). Particulars: Pseudomonas aeruginosa; P. aeruginosa PA103, ExoU secreted into extracellular medium. An excerpt: Tertiary assay: Inhibition of Type III protein secretion of effectors from a Pseudomonas aeruginosa system. Type III protein secretion is used by P. aeruginosa to secrete several essential virulence determinants. One effector of the type III protein secretion system of P. aeruginosa PA103 is the virulence determinants ExoU.
The amount of Type III-dependent secretion of ExoU by P. aeruginosa PA103 can be determined in a cell-based assay by quantification of the 73.9 kDa ExoU protein secreted into the extracellular medium. Such quantitation can be achieved by growing strain PA103 in a deferrated medium in the presence of nitrilotriacetic acid (an inducer of Type III protein secretion in P. aeruginosa) and either in the presence or absence of putative inhibitors. After a prolonged growth period, the cells are sedimented and the supernatants concentrated by ammonium sulfate precipitation. The proteins in the resuspended pellets are separated by electrophoresis on SDS-polyacrylamide gels. After staining gels with Colloidal Blue™, the 73.9 kDa ExoU band is quantitated by scanning through an imager. The effects of inhibitors on the intensity of the ExoU band may be measured relative to that of untreated controls.

The subject of test [3] is SPI1 type III protein secretion system (SipB secretion). The experiment in a line: Secondary assay: Type III-dependent protein secretion of the SipB polypeptide (immunoblot). Particulars: Salmonella enterica, read-out: SipB IC50(uM). The method, then:
Secondary assay: Type III-dependent protein secretion of the SipB polypeptide by S. enterica. The SipB protein of S. enterica is another effector of the SPI1 type III protein secretion system from S. enterica. In this cell-based procedure, the Type III-dependent secretion of SipB from the bacterial cytoplasm to the extracellular medium was measured through its reactivity with a cognate mouse monoclonal.
Salmonella enterica cells growing either in the presence or in the absence of inhibitors are induced for the production of SipB. Following an established period of growth the cells are sedimented and the amount of SipB present in the supernatant is quantified with a scanning imager following application of immunoblot techniques. Detection may employ an anti-SipB mouse monoclonal antibody (e.g., obtained from Jorge Galan, SUNY at Stony Brook, N.Y.) followed by treatment with commercially available sheep anti-mouse polyclonal antibody conjugated with horseradish peroxidase. Thereafter the membrane is treated with a peroxidase chemiluminescent substrate and exposed to film for an appropriate exposure time. Inhibition may be measured relative to untreated controls.
In general terms: Immunoblotting shows a protein as a band on a membrane.

On to `O=C(O)[C@H](CSCc1ccccc1)Nc1nc(Nc2ccc(C(F)(F)F)cc2)nc(-c2cccc(C(F)(F)F)c2)n1` [Compound 21, (R)-3-Benzylsulfanyl-2-[4-(3-trifluoromethylphenyl)-6-(4-trifluoromethyl-phenylamino)[1,3,5]triazin-2-yl-amino]propionic acid], for which, in test [1], the IC50 (in general, the midpoint of a concentration-inhibition curve) came to 4.1 µM.
`O=C(O)[C@H](CSCc1ccccc1)Nc1nc(Nc2ccc(C(F)(F)F)cc2)nc(-c2ccccc2F)n1` [Compound 28, (R)-3-Benzylsulfanyl-2-[4-(2-fluorophenyl)-6-(4-trifluoromethylphenylamino)-[1,3,5]triazin-2-yl-amino]propionic acid]: the half-maximal inhibitory concentration (IC50) is 6.7 µM in test [1] and over 100 µM in test [2].
With `O=C(O)[C@H](CSCc1ccccc1)Nc1nc(Nc2ccc(C(F)(F)F)cc2)nc(-c2ccccc2)n1` [Compound 24, (R)-3-Benzylsulfanyl-2-[4-phenyl-6-(4-trifluoromethylphenylamino)[1,3,5]triazin-2-yl-amino]propionic acid], in test [1], the IC50 turned out to be 4.4 µM.
Same read-out and setting: as for `CC(C)Oc1ccc(-c2nc(Nc3ccc(C(F)(F)F)cc3)nc(N[C@@H](CSCc3ccccc3)C(=O)O)n2)cc1` [Compound 22, (R)-3-Benzylsulfanyl-2-[4-(4-isopropoxyphenyl)-6-(4-trifluoromethyl-phenylamino)[1,3,5]triazin-2-yl-amino]propionic acid], the figure is 4.1 µM.
`O=C(O)[C@H](CSCc1ccccc1)Nc1nc(Nc2ccc(C(F)(F)F)cc2)nc(-c2cccc3ccccc23)n1` [Compound 18, (R)-3-Benzylsulfanyl-2-[4-naphthalen-1-yl-6-(4-trifluoromethylphenylamino)-[1,3,5]triazin-2-yl-amino]propionic acid]: in test [1], the IC50 is 2.5 µM.
For the compound `O=C(O)[C@H](CSCc1ccccc1)Nc1nc(Nc2ccc(C(F)(F)F)cc2)nc(-c2cccc(F)c2)n1` [Compound 23, (R)-3-Benzylsulfanyl-2-[4-(3-fluorophenyl)-6-(4-trifluoromethylphenylamino)-[1,3,5]triazin-2-yl-amino]propionic acid], the IC50 in test [1] is 4.2 µM.
As for `O=C(O)[C@H](CSCc1ccccc1)Nc1nc(Nc2ccc(C(F)(F)F)cc2)nc(-c2ccc(Cl)cc2)n1` [Compound 15, (R)-3-Benzylsulfanyl-2-[4-(4-chlorophenyl)-6-(4-trifluoromethylphenylamino)-[1,3,5]triazin-2-yl-amino]propionic acid], the IC50 in test [1] is 1.9 µM.
`O=C(O)[C@H](CSCc1ccccc1)Nc1nc(Nc2ccc(C(F)(F)F)cc2)nc(-c2ccccc2Oc2ccccc2)n1` [Compound 17, (R)-3-Benzylsulfanyl-2-[4-(2-phenoxyphenyl)-6-(4-trifluoromethylphenylamino)[1,3,5]triazin-2-yl-amino]propionic acid]: the IC50 in test [1] was 2.5 µM.
On to `O=C(O)[C@H](C[S+]([O-])Cc1ccccc1)Nc1nc(-c2ccc(F)cc2)nc(N2CCc3ccccc3C2)n1` (stereo partly drawn) [Compound 9, (R)-2-[4-(3,4-Dihydro-1H-isoquinolin-2-yl)-6-(4-fluorophenyl)[1,3,5]triazin-2-yl-amino]-3-phenylmethanesulfinylpropionic acid], for which the values for the IC50 in test [1] and in test [3] were 42.6 µM and over 100 µM, respectively.
`O=C(O)[C@H](CSCc1ccccc1)Nc1nc(Nc2ccc(C(F)(F)F)cc2)nc(-c2ccc(OC(F)(F)F)cc2)n1` [Compound 19, (R)-3-Benzylsulfanyl-2-[4-(4-trifluoromethoxyphenyl)-6-(4-trifluoromethyl-phenylamino)[1,3,5]triazin-2-yl-amino]propionic acid]: the IC50 in test [1] stood at 3.2 µM.
In the case of `CN(C)c1ccc(-c2nc(Nc3ccc(C(F)(F)F)cc3)nc(N[C@@H](CSCc3ccccc3)C(=O)O)n2)cc1` [Compound 30, (R)-3-Benzylsulfanyl-2-[4-(4-dimethylaminophenyl)-6-(4-trifluoromethyl-phenylamino)[1,3,5)triazin-2-yl-amino]propionic acid], in test [1], the 50% inhibitory concentration (IC50) was found to be 8.5 µM.
As to `O=C(O)[C@H](CSCc1ccccc1)Nc1nc(Nc2ccc(C(F)(F)F)cc2)nc(-c2ccc(C(F)(F)F)cc2)n1` [Compound 16, (R)-3-Benzylsulfanyl-2-[4-(4-trifluoromethylphenyl)-6-(4-trifluoromethyl-phenylamino)[1,3,5]triazin-2-yl-amino]propionic acid], the IC50 in test [1] was 2 µM.
Turning to `O=C(O)[C@H](CSCc1ccccc1)Nc1nc(Nc2ccc(C(F)(F)F)cc2)nc(-c2ccc(F)cc2)n1` [Compound 25, (R)-3-Benzylsulfanyl-2-[4-(4-fluorophenyl)-6-(4-trifluoromethylphenylamino)-[1,3,5]triazin-2-yl-amino]propionic acid], in test [1], the IC50 was found to be 4.7 µM.
With `O=C(O)[C@H](CSCc1ccccc1)Nc1nc(Nc2ccc(C(F)(F)F)cc2)nc(-c2ccc(Br)cc2)n1` [Compound 14, (R)-3-Benzylsulfanyl-2-[4-(4-bromophenyl)-6-(4-trifluoromethylphenylamino)-[1,3,5]triazin-2-yl-amino]propionic acid], in test [1], the IC50 is 1.7 µM.
Still for that read-out and setting: as for `O=C(O)[C@H](CSCc1ccccc1)Nc1nc(Nc2ccc(C(F)(F)F)cc2)nc(-c2ccc(Cl)c(Cl)c2)n1` [Compound 13, (R)-3-Benzylsulfanyl-2-[4-(3,4-dichlorophenyl)-6-(4-trifluoromethylphenylamino)-[1,3,5]triazin-2-yl-amino]propionic acid], the figure is 1.25 µM.
On to `O=C(O)C(Cc1ccc(Cl)cc1)Nc1nc(Nc2ccc(C(F)(F)F)cc2)nc(-c2ccc(F)cc2)n1` (stereo not shown) [Compound 27, 3-(4-Chlorophenyl)-2-[4-(4-fluorophenyl)-6-(4-trifluoromethylphenylamino)-[1,3,5]triazin-2-yl-amino]propionic acid], for which the IC50 is 6.1 µM in test [1] and over 100 µM in test [3].
As for `O=C(O)[C@H](CSCc1ccccc1)Nc1nc(Nc2ccc(C(F)(F)F)cc2)nc(-c2cc(F)cc(F)c2)n1` [Compound 29, (R)-3-Benzylsulfanyl-2-[4-(3,5-difluorophenyl)-6-(4-trifluoromethylphenylamino)[1,3,5]triazin-2-yl-amino]propionic acid], the IC50 in test [1] is 7.4 µM.
Take `O=C(O)[C@H](CSCc1ccccc1)Nc1nc(Nc2ccc(C(F)(F)F)cc2)nc(-c2ccc(Oc3ccccc3)cc2)n1` [Compound 12, (R)-3-Benzylsulfanyl-2-[4-(4-phenoxyphenyl)-6-(4-trifluoromethylphenylamino)[1,3,5]triazin-2-yl-amino]propionic acid]: the half-maximal inhibitory concentration (IC50) in test [1] was 1.1 µM; in test [2], over 100 µM.
As to `O=C(O)[C@H](CSCc1ccccc1)Nc1nc(Nc2ccc(C(F)(F)F)cc2)nc(-c2ccc(O)cc2)n1` [Compound 31, (R)-3-Benzylsulfanyl-2-[4-(4-hydroxyphenyl)-6-(4-trifluoromethylphenylamino)-[1,3,5]triazin-2-yl-amino]propionic acid], the IC50 in test [1] was found to be 9.1 µM.
Regarding `O=C(O)[C@H](CSCc1ccccc1)Nc1nc(Nc2ccc(C(F)(F)F)cc2)nc(-c2ccc3ccccc3c2)n1` [Compound 20, (R)-3-Benzylsulfanyl-2-[4-naphthalen-2-yl-6-(4-trifluoromethylphenylamino)-[1,3,5]triazin-2-yl-amino]propionic acid], the IC50 in test [1] was 3.3 µM; in test [2], over 100 µM.

(Values after patent US20050250945A1, “Triazine compounds as inhibitors of bacterial type III protein secretion systems” (priority 2004, published 2005).)
